Measurements as given in ChEMBL document CHEMBL1150976, “The selectivity of protein kinase inhibitors: a further update” (Biochem J, 2007).

Legend:
Homo sapiens = organism: Homo sapiens; assay: Percentage PHK activity remaining in the presence of 0.1uM inhibitor
[1] = molecular target: Serine/threonine-protein kinase Nek6 (Homo sapiens) (UniProt Q9HC98); assay: Percentage NEK6 activity remaining in the presence of 0.1uM inhibitor
[2] = molecular target: Dual specificity mitogen-activated protein kinase kinase 1 (Homo sapiens) (UniProt Q02750); assay: Percentage MKK1 activity remaining in the presence of 0.1uM inhibitor
[3] = molecular target: T1, Dual specificity tyrosine-phosphorylation-regulated kinase 3 (Homo sapiens) (UniProt O43781); assay: Percentage DYRK3 activity remaining in the presence of 0.1uM inhibitor
T1 sequence (whole entry): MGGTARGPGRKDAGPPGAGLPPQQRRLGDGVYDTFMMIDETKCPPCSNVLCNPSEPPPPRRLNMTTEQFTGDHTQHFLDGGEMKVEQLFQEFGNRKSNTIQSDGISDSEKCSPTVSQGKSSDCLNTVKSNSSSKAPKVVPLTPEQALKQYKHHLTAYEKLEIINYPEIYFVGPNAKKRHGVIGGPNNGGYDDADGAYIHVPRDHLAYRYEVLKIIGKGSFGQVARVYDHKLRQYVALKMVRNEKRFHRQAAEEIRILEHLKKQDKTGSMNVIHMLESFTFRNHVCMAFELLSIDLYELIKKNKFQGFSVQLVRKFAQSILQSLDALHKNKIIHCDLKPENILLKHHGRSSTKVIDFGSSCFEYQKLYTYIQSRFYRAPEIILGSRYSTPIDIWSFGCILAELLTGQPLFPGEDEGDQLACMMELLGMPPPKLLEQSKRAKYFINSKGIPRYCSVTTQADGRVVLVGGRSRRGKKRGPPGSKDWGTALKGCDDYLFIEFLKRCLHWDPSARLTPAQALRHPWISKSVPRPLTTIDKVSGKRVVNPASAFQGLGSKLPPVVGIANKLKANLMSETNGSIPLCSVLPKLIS

[4] = molecular target: Casein kinase II (Homo sapiens) (UniProt P67870+P68400+P19784); assay: Percentage CK2 activity remaining in the presence of 0.1uM inhibitor; type: protein-complex assay
[5] = molecular target: Mitogen-activated protein kinase 10 (Homo sapiens) (UniProt P53779); assay: Percentage JNK3 activity remaining in the presence of 0.1uM inhibitor
[6] = molecular target: SRSF protein kinase 1 (Homo sapiens) (UniProt Q96SB4); assay: Percentage SRPK1 activity remaining in the presence of 0.1uM inhibitor
[7] = molecular target: Myosin light chain kinase, smooth muscle (Homo sapiens, UniProt Q15746); assay: Percentage SmMLCK activity remaining in the presence of 0.1uM inhibitor
[8] = molecular target: T2, Mitogen-activated protein kinase 15 (Homo sapiens) (UniProt Q8TD08); assay: Percentage ERK8 activity remaining in the presence of 0.1uM inhibitor
T2 sequence (whole entry): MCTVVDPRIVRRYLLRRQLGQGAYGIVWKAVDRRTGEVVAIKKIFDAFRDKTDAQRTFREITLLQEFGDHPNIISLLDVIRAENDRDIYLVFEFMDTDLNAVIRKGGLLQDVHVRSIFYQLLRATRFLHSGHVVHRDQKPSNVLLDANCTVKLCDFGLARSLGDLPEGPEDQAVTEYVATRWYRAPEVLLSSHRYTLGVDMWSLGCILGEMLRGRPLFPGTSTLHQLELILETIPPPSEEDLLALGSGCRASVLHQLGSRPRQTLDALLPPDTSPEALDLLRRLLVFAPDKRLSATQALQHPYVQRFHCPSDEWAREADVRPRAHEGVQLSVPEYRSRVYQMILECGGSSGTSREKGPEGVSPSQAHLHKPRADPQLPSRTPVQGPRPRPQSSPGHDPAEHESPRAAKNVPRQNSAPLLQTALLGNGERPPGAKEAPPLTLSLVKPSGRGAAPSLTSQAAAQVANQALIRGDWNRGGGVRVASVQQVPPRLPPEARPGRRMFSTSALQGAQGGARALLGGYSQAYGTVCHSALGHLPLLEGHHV

[9] = molecular target: Protein kinase C alpha type (Homo sapiens) (UniProt P17252); assay: Percentage PKCalpha activity remaining in the presence of 0.1uM inhibitor
[10] = molecular target: Mitogen-activated protein kinase 14 (Homo sapiens, UniProt Q16539); assay: Percentage p38alpha activity remaining in the presence of 0.1uM inhibitor
[11] = molecular target: Serine/threonine-protein kinase PAK 4 (Homo sapiens, UniProt O96013); assay: Percentage PAK4 activity remaining in the presence of 0.1uM inhibitor
[12] = molecular target: T3, Serine/threonine-protein kinase 3 (Homo sapiens) (UniProt Q13188); assay: Percentage MST2 activity remaining in the presence of 0.1uM inhibitor
T3 sequence (whole entry): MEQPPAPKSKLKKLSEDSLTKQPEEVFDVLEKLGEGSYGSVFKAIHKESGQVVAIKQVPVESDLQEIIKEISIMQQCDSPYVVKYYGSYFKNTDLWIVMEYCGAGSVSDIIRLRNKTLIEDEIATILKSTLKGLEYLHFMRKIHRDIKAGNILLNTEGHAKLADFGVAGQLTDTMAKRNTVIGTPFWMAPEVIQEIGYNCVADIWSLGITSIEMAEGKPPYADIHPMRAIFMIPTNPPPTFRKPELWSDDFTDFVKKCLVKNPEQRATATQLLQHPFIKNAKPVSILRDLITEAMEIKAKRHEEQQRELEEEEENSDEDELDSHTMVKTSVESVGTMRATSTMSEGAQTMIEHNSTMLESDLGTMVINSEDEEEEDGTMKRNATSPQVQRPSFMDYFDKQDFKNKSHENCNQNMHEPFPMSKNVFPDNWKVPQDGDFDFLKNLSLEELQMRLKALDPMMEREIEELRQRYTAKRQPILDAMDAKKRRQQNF

[13] = molecular target: T4, Serine/threonine-protein kinase Sgk1 (Homo sapiens) (UniProt O00141); assay: Percentage SGK1 activity remaining in the presence of 0.1uM inhibitor
T4 sequence (whole entry): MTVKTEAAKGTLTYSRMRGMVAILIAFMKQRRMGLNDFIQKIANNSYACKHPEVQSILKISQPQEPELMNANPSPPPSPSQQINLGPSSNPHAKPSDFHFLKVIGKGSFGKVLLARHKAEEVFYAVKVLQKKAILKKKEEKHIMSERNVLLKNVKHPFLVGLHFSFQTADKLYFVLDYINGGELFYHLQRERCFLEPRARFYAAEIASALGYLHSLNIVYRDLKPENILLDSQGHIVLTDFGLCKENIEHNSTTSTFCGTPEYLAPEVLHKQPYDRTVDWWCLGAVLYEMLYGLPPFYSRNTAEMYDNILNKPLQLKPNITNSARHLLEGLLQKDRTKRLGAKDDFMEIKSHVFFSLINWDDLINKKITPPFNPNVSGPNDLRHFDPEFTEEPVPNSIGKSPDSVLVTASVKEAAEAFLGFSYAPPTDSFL

[14] = molecular target: Homeodomain-interacting protein kinase 2 (Homo sapiens) (UniProt Q9H2X6); assay: Percentage HIPK2 activity remaining in the presence of 0.1uM inhibitor
Rattus norvegicus = organism: Rattus norvegicus; assay: Percentage AMPK activity remaining in the presence of 0.1uM inhibitor

Dual specificity mitogen-activated protein kinase kinase 1 (Homo sapiens), sequence (Q02750 whole entry): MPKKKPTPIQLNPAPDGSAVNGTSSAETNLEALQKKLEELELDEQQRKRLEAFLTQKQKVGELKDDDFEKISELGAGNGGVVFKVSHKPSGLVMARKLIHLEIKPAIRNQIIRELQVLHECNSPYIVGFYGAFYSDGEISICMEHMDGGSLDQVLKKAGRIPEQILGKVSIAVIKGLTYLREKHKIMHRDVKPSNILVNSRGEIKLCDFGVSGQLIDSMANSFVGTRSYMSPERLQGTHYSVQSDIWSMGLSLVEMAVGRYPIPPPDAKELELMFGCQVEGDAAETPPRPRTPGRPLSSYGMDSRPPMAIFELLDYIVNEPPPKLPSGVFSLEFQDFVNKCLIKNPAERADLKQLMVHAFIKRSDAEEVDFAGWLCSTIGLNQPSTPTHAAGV
Mitogen-activated protein kinase 10 (Homo sapiens), sequence (P53779 whole entry): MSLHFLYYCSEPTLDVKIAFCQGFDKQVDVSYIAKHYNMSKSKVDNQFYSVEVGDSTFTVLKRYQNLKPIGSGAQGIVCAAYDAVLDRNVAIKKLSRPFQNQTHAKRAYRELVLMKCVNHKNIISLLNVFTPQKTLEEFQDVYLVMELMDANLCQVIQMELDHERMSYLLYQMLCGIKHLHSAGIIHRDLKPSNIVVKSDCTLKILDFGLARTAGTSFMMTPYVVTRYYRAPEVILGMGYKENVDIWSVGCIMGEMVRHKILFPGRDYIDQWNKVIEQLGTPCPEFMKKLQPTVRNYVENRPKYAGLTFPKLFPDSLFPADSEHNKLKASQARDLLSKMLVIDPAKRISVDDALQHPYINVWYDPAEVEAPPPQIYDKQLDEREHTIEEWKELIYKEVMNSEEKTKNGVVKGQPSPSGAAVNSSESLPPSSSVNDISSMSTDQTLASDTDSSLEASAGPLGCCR
SRSF protein kinase 1 (Homo sapiens), sequence (Q96SB4 whole entry): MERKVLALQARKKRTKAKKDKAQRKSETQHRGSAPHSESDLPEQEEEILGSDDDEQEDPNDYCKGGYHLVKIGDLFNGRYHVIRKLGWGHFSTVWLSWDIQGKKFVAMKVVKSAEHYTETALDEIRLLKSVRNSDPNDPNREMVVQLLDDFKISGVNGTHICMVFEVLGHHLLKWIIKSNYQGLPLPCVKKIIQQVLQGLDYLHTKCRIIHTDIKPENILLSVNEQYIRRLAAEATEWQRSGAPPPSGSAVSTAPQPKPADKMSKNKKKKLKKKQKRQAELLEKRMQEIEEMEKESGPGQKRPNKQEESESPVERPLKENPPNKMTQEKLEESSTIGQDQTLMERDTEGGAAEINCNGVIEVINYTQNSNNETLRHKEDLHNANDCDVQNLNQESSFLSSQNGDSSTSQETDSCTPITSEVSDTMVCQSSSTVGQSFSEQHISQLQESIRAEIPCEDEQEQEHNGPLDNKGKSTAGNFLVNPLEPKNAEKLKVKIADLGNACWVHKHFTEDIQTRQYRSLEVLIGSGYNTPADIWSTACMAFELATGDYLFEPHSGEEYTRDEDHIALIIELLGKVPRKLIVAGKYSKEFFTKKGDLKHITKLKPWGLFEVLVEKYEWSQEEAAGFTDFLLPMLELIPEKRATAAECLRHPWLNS
Serine/threonine-protein kinase Nek6 (Homo sapiens), sequence (Q9HC98 whole entry): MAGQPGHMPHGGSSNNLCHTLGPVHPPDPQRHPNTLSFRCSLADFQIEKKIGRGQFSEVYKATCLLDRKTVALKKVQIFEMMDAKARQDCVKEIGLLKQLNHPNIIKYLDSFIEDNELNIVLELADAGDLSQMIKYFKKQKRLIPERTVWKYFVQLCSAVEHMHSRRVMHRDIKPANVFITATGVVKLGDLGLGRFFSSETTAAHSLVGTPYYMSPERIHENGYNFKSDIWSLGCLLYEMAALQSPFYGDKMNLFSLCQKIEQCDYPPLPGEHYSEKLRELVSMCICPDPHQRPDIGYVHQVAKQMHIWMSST
Homeodomain-interacting protein kinase 2 (Homo sapiens), sequence (Q9H2X6 whole entry, looked up): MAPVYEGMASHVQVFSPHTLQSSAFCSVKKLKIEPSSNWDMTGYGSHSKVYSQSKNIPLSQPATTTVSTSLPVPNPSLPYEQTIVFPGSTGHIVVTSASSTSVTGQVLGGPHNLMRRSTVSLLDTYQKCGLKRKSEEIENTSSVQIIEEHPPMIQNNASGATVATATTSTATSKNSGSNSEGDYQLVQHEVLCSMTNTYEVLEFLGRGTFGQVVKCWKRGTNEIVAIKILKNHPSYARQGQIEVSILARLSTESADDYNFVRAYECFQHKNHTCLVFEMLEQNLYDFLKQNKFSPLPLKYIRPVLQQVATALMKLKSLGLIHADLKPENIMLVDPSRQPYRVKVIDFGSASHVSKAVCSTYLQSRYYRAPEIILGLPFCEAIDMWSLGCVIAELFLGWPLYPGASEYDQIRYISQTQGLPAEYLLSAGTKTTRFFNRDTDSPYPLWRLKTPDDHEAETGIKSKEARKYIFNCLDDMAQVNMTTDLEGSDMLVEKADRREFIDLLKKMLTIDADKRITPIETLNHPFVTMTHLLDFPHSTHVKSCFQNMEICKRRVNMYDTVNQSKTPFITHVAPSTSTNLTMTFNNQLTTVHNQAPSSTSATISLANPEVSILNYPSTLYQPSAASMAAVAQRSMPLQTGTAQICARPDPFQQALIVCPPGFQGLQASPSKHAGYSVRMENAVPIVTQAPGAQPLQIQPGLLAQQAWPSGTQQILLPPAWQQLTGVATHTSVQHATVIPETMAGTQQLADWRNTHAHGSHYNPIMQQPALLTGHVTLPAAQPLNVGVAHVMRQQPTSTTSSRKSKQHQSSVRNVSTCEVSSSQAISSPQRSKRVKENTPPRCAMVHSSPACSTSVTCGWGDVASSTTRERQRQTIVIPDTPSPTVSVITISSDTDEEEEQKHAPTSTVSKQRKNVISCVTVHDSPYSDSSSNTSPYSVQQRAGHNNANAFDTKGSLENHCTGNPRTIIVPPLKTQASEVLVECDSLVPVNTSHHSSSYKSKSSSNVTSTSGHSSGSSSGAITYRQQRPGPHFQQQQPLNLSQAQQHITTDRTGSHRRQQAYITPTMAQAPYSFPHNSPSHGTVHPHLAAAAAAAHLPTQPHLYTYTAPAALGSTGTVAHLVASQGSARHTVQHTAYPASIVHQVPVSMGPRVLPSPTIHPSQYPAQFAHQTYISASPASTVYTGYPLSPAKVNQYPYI
Serine/threonine-protein kinase PAK 4, sequence (O96013 whole entry, looked up): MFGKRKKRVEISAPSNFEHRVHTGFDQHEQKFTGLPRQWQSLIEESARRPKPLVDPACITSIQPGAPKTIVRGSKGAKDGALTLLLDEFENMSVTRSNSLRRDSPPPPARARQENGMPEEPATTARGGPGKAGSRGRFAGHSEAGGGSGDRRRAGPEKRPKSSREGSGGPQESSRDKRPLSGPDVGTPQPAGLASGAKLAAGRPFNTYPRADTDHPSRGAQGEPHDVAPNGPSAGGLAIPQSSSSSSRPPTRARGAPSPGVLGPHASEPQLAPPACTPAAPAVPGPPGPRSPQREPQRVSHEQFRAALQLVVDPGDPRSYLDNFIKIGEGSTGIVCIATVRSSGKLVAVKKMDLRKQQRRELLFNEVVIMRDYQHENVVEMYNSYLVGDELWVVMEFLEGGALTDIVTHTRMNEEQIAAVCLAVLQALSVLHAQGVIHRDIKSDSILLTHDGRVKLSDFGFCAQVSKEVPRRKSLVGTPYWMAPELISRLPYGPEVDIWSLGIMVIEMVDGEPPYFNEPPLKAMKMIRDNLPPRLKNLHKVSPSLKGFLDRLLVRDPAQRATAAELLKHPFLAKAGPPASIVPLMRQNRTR
Mitogen-activated protein kinase 14, sequence (Q16539 whole entry): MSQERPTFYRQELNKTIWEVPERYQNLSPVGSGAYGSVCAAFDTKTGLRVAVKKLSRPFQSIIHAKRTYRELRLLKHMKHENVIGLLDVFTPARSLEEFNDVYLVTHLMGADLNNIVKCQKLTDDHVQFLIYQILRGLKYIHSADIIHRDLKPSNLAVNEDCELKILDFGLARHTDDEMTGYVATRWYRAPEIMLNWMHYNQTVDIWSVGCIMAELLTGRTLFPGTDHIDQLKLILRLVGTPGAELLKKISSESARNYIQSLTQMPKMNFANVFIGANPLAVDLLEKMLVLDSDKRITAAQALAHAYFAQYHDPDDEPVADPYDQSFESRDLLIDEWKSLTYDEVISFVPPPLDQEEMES

SMILES	Activity (Homo sapiens) [%]	Activity [1] [%]	Activity [2] [%]	Activity [3] [%]	Activity [4] [%]	Activity [5] [%]	Activity [6] [%]	Activity [7] [%]	Activity [8] [%]	Activity [9] [%]	Activity [10] [%]	Activity [11] [%]	Activity ([12]; filed as antagonist) [%]	Activity [13] [%]	Activity [14] [%]	Activity (Rattus norvegicus) [%]	Activity ([2]; filed as antagonist) [%]	Activity ([8]; filed as antagonist) [%]	Activity [12] [%]	Activity ([13]; filed as antagonist) [%]	also measured
CC(C)CCN1c2nc(Nc3cc(F)c(O)c(F)c3)ncc2N(C)C(=O)C1C (stereo unspecified)	114	115	98	91	97	97	94	107	82	90	88	81	41	112	103	108	–	–	–	–	–
O=C(NCCCNc1nc(Nc2cccc(NC(=O)N3CCCC3)c2)ncc1I)c1cccs1	62	98	–	65	93	93	86	95	–	74	87	71	–	–	101	–	33	7	92	48	Activity (Rattus norvegicus; filed as antagonist): 11%
Cc1n[nH]c2ccc(-c3cncc(OC[C@@H](N)Cc4c[nH]c5ccccc45)c3)cc12	54	95	67	–	90	86	91	–	–	–	92	90	29	53	–	67	–	28	–	–	Activity ([3]; filed as antagonist): 8%; Activity ([7]; filed as antagonist): 27%; Activity ([9]; filed as antagonist): 29%; Activity ([14]; filed as antagonist): 24%
Cn1c2ccccc2c2c3c(c4c5ccccc5n(CCC#N)c4c21)CNC3=O	–	96	–	–	88	79	92	–	–	–	100	–	3	–	63	–	34	38	–	44	Activity (Homo sapiens; filed as antagonist): 1%; Activity ([3]; filed as antagonist): 28%; Activity ([7]; filed as antagonist): 40%; Activity ([9]; filed as antagonist): 2%; Activity ([11]; filed as antagonist): 5%
CN(C)C[C@@H]1CCn2cc(c3ccccc32)C2=C(C(=O)NC2=O)c2cn(c3ccccc23)CCO1	–	93	–	64	89	112	–	66	92	–	–	75	37	66	63	71	42	–	–	–	Activity (Homo sapiens; filed as antagonist): 49%
CC(C)[C@H](CO)Nc1nc(Nc2cccc(Cl)c2)c2ncn(C(C)C)c2n1 [PURVALANOLA]	85	91	–	89	99	100	79	86	70	77	95	–	–	82	–	89	–	–	60	–	Activity ([11]; filed as antagonist): 43%
Cn1cc(C2=C(c3cn(CCCSC(=N)N)c4ccccc34)C(=O)NC2=O)c2ccccc21	–	97	87	55	99	102	82	63	51	–	102	75	–	–	88	84	–	–	80	39	Activity (Homo sapiens; filed as antagonist): 46%; Activity ([9]; filed as antagonist): 3%
